From US7422863B2, “Molting hormone receptor and method for screening ligand to the receptor” (Kumiai Chemical Industry Co., Ltd., priority 2003, dated 2008)
pKd: −log10 of the molar value. “Also recorded” adds a separate entry of the source.

Key:
Design in all cases: species or system Spodoptera litura
EcR-DF/USP-AE complex [1] = test: Screening system: inhibition of [3H]ponasterone A binding to the complex by test compounds; conditions: for activity of binding to the EcR-DF/USP-AE complex: endocrine disrupters and female hormone, FIG. 25; for inhibition of the binding of [3H]ponasterone A to the complex: concentration of test compound changed, FIG. 24; for activity of binding to the complex: test compound 10,000 times stronger than [3H]ponasterone A
Description: In Example 7, a screening system used for screening an insect inhibitor was constructed based on the results of Examples 1 to 6. As described in Examples 1 to 6, when binding analysis was carried out using ponasterone A as an ecdysone agonist, ponasterone A binding to a complex consisting of EcR-DF and USP-AE was observed. In order to confirm whether or not this system functions as a screening system, the binding of the complex to other ecdysone agonists should also be observed. Thus, using 20-hydroxyecdysone that is an ecdysone active in living insect bodies and tebufenozide (RH-5992) that is a synthetic ecdysone agonist, the binding experiment was carried out between the […] and each of the above compounds.
First, EcR-DF and USP-AE were mixed into a binding buffer, and [^3H]ponasterone A was then added thereto in the same manner as in Example 4. Also, the same experiment was carried out with the exception that 20-hydroxyecdysone or tebufenozide that was 10,000 times stronger than [^3H]ponasterone A was added thereto, so as to obtain nonspecific binding. […] Thus, the same experiment was carried out while the concentration of 20-hydroxyecdysone or tebufenozide was changed.
Subsequently, in the present example, using a screening system in which ability to bind to the EcR-DF/USP-AE complex is used as an index, 4 types of compounds were evaluated in terms of such binding ability. As compounds to be evaluated, 4-nonylphenol, stilbestrol, and diethyl phthalate (endocrine disrupters), and estradiol-17β (female hormone) were used.

[2] = system: EcR-AF combined with USP-AE or USP-DE; test: [3H]ponasterone A binding experiment with full-length EcR recombinant
Description: Each expression plasmid DNA was independently introduced into COS-7 cells. 48 hours later, each extract was prepared from the cells. In addition, plasmid DNA into which EcR-AF had been inserted and plasmid DNA into which USP-AE had been inserted were co-introduced into COS-7 cells, and an extract was then prepared in the same manner. Moreover, plasmid DNA into which, EcR-DF had been inserted and plasmid DNA into which USP-AE had been inserted were co-introduced into COS-7 cells, and an extract was then prepared in the same manner. Furthermore, plasmid DNA into which EcR-AF had been inserted and plasmid DNA into which USP-DE had been inserted were co-introduced into COS-7 cells, and an extract was then prepared in the same manner. Further, plasmid DNA into which EcR-DF had been inserted and plasmid DNA into which USP-DE had been inserted were co-introduced into COS-7 cells, and an extract was then prepared in the same manner. […]
In order to prevent the non-specific binding of ponasterone A to a receptor (a complex consisting of an EcR recombinant and a USP recombinant), 1% BSA was first added to a binding buffer (20 mM HEPES (pH7.4)/5 mM DTT/1 nM PMSF). […] A supernatant fraction obtained after centrifugation was mixed with a liquid scintillator, and the radioactivity (DPM) of the obtained mixture was measured using a liquid scintillation counter (ALOKA LSC-5100). […]

EcR-DF/USP-AE complex [3] = test: Scatchard analysis of binding of complex to [3H]ponasterone A; conditions: EcR-DF:USP-AE 1:1, FIG. 23, read-out: dissociation constant (Kd)
Description: In Example 6, using EcR-DF and USP-AE, the dissociation constant (Kd) of the complex to ponasterone A was obtained as follows. First, EcR-DF was mixed with USP-AE at a molar ratio of 1:1, and [^3H]ponasterone A with various concentrations was then added to the mixture. An activated carbon solution was added to the reaction solution to eliminate free ligands. The amount of the EcR-DF/USP-AE complex binding to [^3H]ponasterone A (total binding amount) was obtained by measuring the radioactivity of a supernatant fraction obtained after centrifugation. Moreover, the same experiment was carried out with the exception that nonradioactive ponasterone A that was 10,000 times stronger than [^3H]ponasterone A was added, so as to obtained non-specific binding. In FIG. 23, the horizontal axis indicates the specific bound amount of [^3H]ponasterone A (nM), the vertical axis indicates specific binding amount (bound)/total binding amount-specific binding amount (free).

[4] = system: complex consisting of EcR-DF and USP-AE; test: [3H]ponasterone A binding experiment, charcoal dextran method, recombinants expressed in Escherichia coli
Source text: (§1) In Example 4, in order to separate a binding form from a free form, the charcoal dextran method was applied. This is a common method applied when a steroid hormone is used as a ligand. By adding an activated carbon solution coated with dextran to a reaction solution when the reaction is terminated, a ligand that has not bound to a receptor is adsorbed on the activated carbon. Thereafter, the reaction solution is centrifuged, thereby separating an activated carbon fraction (precipitate fraction) from a supernatant fraction in which a receptor/ligand complex exists.
(§2) In order to prevent the non-specific binding of ponasterone A to a receptor (a complex consisting of an EcR recombinant and a USP recombinant), 1% BSA was first added to a binding buffer (20 mM HEPES (pH7.4)/5 mM DTT/1 nM PMSF). Thereafter, USP-AE or USP-DE was mixed with the EcR-AF, EcR-DF, EcR-DE, EcR-EF, or EcR-E, purified in Example 2. Thereafter, [^3H]ponasterone A ([24, 25, 26, 27-3H] Ponasterone A (American Radiolabeled Chemicals Inc.)) with a final concentration of 1.37 nM was further added thereto. The obtained mixture was reacted at 25° C. 40 minutes later, the reaction was terminated by addition of 200 μl of an activated carbon solution (0.5% Charcoal, dextran coated (SIGMA)/20 mm HEPES/50 mM NaCl). A supernatant fraction obtained after centrifugation was mixed with a liquid scintillator, and the radioactivity (DPM) of the obtained mixture was measured using a liquid scintillation counter (ALOKA LSC-5100). The obtained measurement value was defined as the total binding amount. Moreover, the same experiment was carried out with the exception that nonradioactive ponasterone A that was 10,000 times stronger than [^3H]ponasterone A was added. Then, the amount of a ligand non-specifically binding to a receptor was obtained. The amount of a ligand specifically binding to a receptor was defined as a value obtained by subtracting the non-specific binding amount from the total binding amount.
The optimal reaction time for a binding reaction between a complex consisting of EcR-DF and USP-AE and a ligand was analyzed as follows. First, USP-AE with various types of concentrations was added to a certain amount of EcR-DF, and the obtained mixture was then reacted at 25° C. for 40 minutes in a water bath. The concentration of ponasterone A in the reaction solution was set at 1.34 nM. […]
The optimal reaction time for a binding reaction between a complex consisting of EcR-DF and USP-AE and a ligand was analyzed as follows. […]
The optimal reaction temperature for a binding reaction between a complex consisting of EcR-DF and USP-AE and a ligand was analyzed as follows. […]

[5] = system: complex consisting of EcR-DF and USP-DE; test: as above; conditions: E. coli-expressed recombinants; 1.37 nM [3H]ponasterone A, 25° C., 40 minutes; FIG. 16
Source text: as §1
In order to prevent the non-specific binding of ponasterone A to a receptor (a complex consisting of an EcR recombinant and a USP recombinant), 1% BSA was first added to a binding buffer (20 mM HEPES (pH7.4)/5 mM DTT/1 nM PMSF). Thereafter, USP-AE or USP-DE was mixed with the EcR-AF, EcR-DF, EcR-DE, EcR-EF, or EcR-E, purified in Example 2. Thereafter, [^3H]ponasterone A ([24, 25, 26, 27-3H] Ponasterone A (American Radiolabeled Chemicals Inc.)) with a final concentration of 1.37 nM was further added thereto. The obtained mixture was reacted at 25° C. […] A supernatant fraction obtained after centrifugation was mixed with a liquid scintillator, and the radioactivity (DPM) of the obtained mixture was measured using a liquid scintillation counter (ALOKA LSC-5100). […]

EcR-DF and USP-AE = test: [3H]ponasterone A binding experiment using COS-7 cell extracts
Description: (§3) Each expression plasmid DNA was independently introduced into COS-7 cells. 48 hours later, each extract was prepared from the cells. In addition, plasmid DNA into which EcR-AF had been inserted and plasmid DNA into which USP-AE had been inserted were co-introduced into COS-7 cells, and an extract was then prepared in the same manner. Moreover, plasmid DNA into which, EcR-DF had been inserted and plasmid DNA into which USP-AE had been inserted were co-introduced into COS-7 cells, and an extract was then prepared in the same manner. Furthermore, plasmid DNA into which EcR-AF had been inserted and plasmid DNA into which USP-DE had been inserted were co-introduced into COS-7 cells, and an extract was then prepared in the same manner. Further, plasmid DNA into which EcR-DF had been inserted and plasmid DNA into which USP-DE had been inserted were co-introduced into COS-7 cells, and an extract was then prepared in the same manner. The expression of a product of interest in the COS-7 cells was confirmed by Western blotting using an anti-FLAG antibody.
(§4) By the aforementioned operations, 4 types of extracts containing each of EcR-AF, EcR-DF, USP-AE, and USP-DE, an extract containing the coexpressed EcR-AF and USP-AE, an extract containing the coexpressed EcR-DF and USP-AE, an extract containing the coexpressed EcR-AF and USP-DE, and an extract containing the coexpressed EcR-DF and USP-DE, were prepared.
as §2, with “The amount of a ligand specifically binding to a receptor was defined as a value obtained by subtracting the non-specific binding amount from the total binding amount.” left out

EcR-DF and USP-DE = test: as above
Description: as §3, §4
as §2, with “The amount of a ligand specifically binding to a receptor was defined as a value obtained by subtracting the non-specific binding amount from the total binding amount.” left out

EcR or USP (single use) = test: [3H]ponasterone A binding experiment, charcoal dextran method, single use of EcR or USP recombinant; conditions: regardless of length, FIG. 16
Source text: as §1
In order to prevent the non-specific binding of ponasterone A to a receptor (a complex consisting of an EcR recombinant and a USP recombinant), 1% BSA was first added to a binding buffer (20 mM HEPES (pH7.4)/5 mM DTT/1 nM PMSF). […] Thereafter, [^3H]ponasterone A ([24, 25, 26, 27-3H] Ponasterone A (American Radiolabeled Chemicals Inc.)) with a final concentration of 1.37 nM was further added thereto. The obtained mixture was reacted at 25° C. 40 minutes later, the reaction was terminated by addition of 200 μl of an activated carbon solution (0.5% Charcoal, dextran coated (SIGMA)/20 mm HEPES/50 mM NaCl). A supernatant fraction obtained after centrifugation was mixed with a liquid scintillator, and the radioactivity (DPM) of the obtained mixture was measured using a liquid scintillation counter (ALOKA LSC-5100). […]

[6] = coexpressed in COS-7 cells, FIG. 17 lanes 7 and 8
[7] = singly expressed in COS-7 cells, then mixed, FIG. 17 lanes 3 and 4

## CC/C(=C(/CC)c1ccc(O)cc1)c1ccc(O)cc1 [stilbestrol]
EcR-DF/USP-AE complex [1]
  activity of binding to the EcR-DF/USP-AE complex: exhibited activity of binding; also recorded: exhibited strong binding activity

## C[C@]12CC[C@@H]3c4ccc(O)cc4CC[C@H]3[C@@H]1CC[C@@H]2O [estradiol-17β]
EcR-DF/USP-AE complex [1]
  activity of binding to the EcR-DF/USP-AE complex: exhibited activity of binding

## CC(C)CC[C@@H](O)[C@](C)(O)[C@H]1CC[C@@]2(O)C3=CC(=O)[C@@H]4C[C@@H](O)[C@@H](O)C[C@]4(C)[C@H]3CC[C@]12C [ponasterone A]
[2]; COS-7 extracts, coexpression and mixing after single expression, FIG. 17
  binding to a ligand (ponasterone A): no bindings to a ligand were observed
[2]; both Escherichia coli and mammalian cell expression systems
  binding of the full-length EcR recombinant (EcR-AF) to ponasterone A: extremely weak
EcR-DF/USP-AE complex [3]
  pKd: 8.55
[4]; 25° C., 1.34 nM ponasterone A, EcR-DF:USP-AE 1:1
  time necessary for saturation of the binding: 60 min
[4]; E. coli-expressed recombinants, 1.37 nM [3H]ponasterone A, 25° C., 40 minutes, FIG. 16
  ability to bind to a ligand (specific binding of [3H]ponasterone A): had ability to bind
[4]; NaCl 0, 50, 100, 300, 500 mM, 25° C., FIG. 21
  effect of salt (NaCl) concentration on specific binding of ligand to the complex: as the salt concentration increased, the specific binding of a ligand to the above complex decreased
[4]; low-temperature chamber at 4° C.
  time necessary for saturation of the binding: 480 min
[5]
  ability to bind to a ligand (specific binding of [3H]ponasterone A): had ability to bind
EcR-DF and USP-AE; [6]
  binding to a ligand (ponasterone A): a strong binding to a ligand was observed
EcR-DF and USP-AE; [7]
  binding to a ligand (ponasterone A): no such bindings were observed
EcR-DF and USP-DE; [6]
  binding to a ligand (ponasterone A): a strong binding to a ligand was observed
EcR-DF and USP-DE; [7]
  binding to a ligand (ponasterone A): no such bindings were observed
EcR or USP (single use)
  specific binding of [3H]ponasterone A: no specific bindings were observed

## CC(C)(O)CC[C@@H](O)[C@](C)(O)[C@H]1CC[C@@]2(O)C3=CC(=O)[C@@H]4C[C@@H](O)[C@@H](O)C[C@]4(C)[C@H]3CC[C@]12C [20-hydroxyecdysone]
EcR-DF/USP-AE complex [1]
  inhibition of the binding of [3H]ponasterone A to the complex: concentration-dependently inhibit
  activity of binding to the complex: exhibited activity of binding

## CCCCCCCCCc1ccc(O)cc1 [4-nonylphenol]
EcR-DF/USP-AE complex [1]
  activity of binding to the EcR-DF/USP-AE complex: exhibited activity of binding; also recorded: exhibited strong binding activity

## CCc1ccc(C(=O)NN(C(=O)c2cc(C)cc(C)c2)C(C)(C)C)cc1 [tebufenozide]
EcR-DF/USP-AE complex [1]
  inhibition of the binding of [3H]ponasterone A to the complex: concentration-dependently inhibit
  activity of binding to the complex: exhibited activity of binding
